Test results reported in US8404650B2, “Methods of treating cancer with doxazolidine and prodrugs thereof” (priority 2005, dated 2013).
Like-named read-outs stand apart in the source and are kept apart here.

Experiment: Hydrolysis of Doxaz to Doxorubicin in buffers (HPLC)
Format: physicochemical
Method: Doxaz stability in DMSO. Doxaz (22 mg, 40 μmol) was dissolve in 1 mL of DMSO-d6 (stored over activated 4 Å molecular sieves) and analyzed for purity by 500 MHz ^1H NMR. After a 10× dilution with DMSO to a concentration of 4 mM, the stability of Doxaz was then followed by HPLC, observing the relative peak area of the Doxaz peak at 6.6 min with constant injection volume. Doxaz hydrolyzed at a rate of <2% per day in DMSO. Doxaz stability in buffers. HPLC buffer, pH 7.4, 20 mM TEAA, was used for the measurement of hydrolysis of Doxaz. The buffer's pH was adjusted as needed with either triethyl amine or acetic acid to pH 10.4, 9.0, 6.0 and 5.0 with one sample left unchanged at pH 7.4. A volume of 1950 μL of each of these solutions was added to a conical vial and then cooled to 14° C. 50 μL of a 4 mM solution of Doxaz was added to each tube and hydrolysis was followed by HPLC with injections every 10 min. The pH of the buffers was measured before the addition of drug and 1.5 h after the start of hydrolysis.
Both DoxF and Doxaz are relatively stable in dry chloroform and dry DMSO over a period of days. In dry DMSO, Doxaz hydrolyzes to Doxorubicin at less than 2% per day at ambient temperature. In aqueous medium, DoxF is very hydrolytically unstable with respect to formation of Doxaz, and Doxaz is hydrolytically unstable with respect to formation of Doxorubicin. […] Consequently, HPLC was used to monitor the kinetics of hydrolysis of Doxaz to Doxorubicin at 14° C. as a function of pH. […] The hydrolysis was too rapid to measure the rate at 37° C. Extrapolation using the rough rule that the rate will double for every 10° C. increase in temperature, gives an estimation of the half-life at pH 7.4 and 37° C. of 3 to 4 min. The rate constant increases with decreasing pH except for the transition from pH 10.4 to pH 9.0 where the rate constant decreases slightly. At pH 10.5 the solution appears purple, indicative of deprotonation at one of the hydroquinone functional groups. […] The higher rate at low pH is consistent with acid catalysis, probably assisting hydrolytic ring opening as the slow step. […]

## COc1cccc2c1C(=O)c1c(O)c3c(c(O)c1C2=O)C[C@@](O)(C(=O)CO)C[C@@H]3O[C@H]1C[C@@H]2NCO[C@@H]2[C@H](C)O1 [Doxaz, Doxazolidine]
20 mM TEAA buffer, pH 7.4, aqueous media, pH 7.4, 37° C., extrapolated from 14° C. (rate doubles per 10° C.), read-out: Half-life for hydrolysis of Doxaz to Doxorubicin at 37° C.
  half-life at 100 µM: 3 to 4 min
20 mM TEAA buffer, pH 7.5, pH 7.5, 14° C., 20 mM TEAA buffer, read-out: Half-life for hydrolysis of Doxaz to Doxorubicin at 14° C.
  half-life at 100 µM: 16 min
20 mM triethylammonium acetate (TEAA) buffer, pH 7.4, after prodrug activation near a tumor / in vivo, read-out: Half-life of Doxaz (conversion to Doxorubicin) after release
  half-life at 100 µM: ~3 min
